Assay results from patent US4036957A, “Phenoxy compounds in combinations to suppress gastric bleeding in aspirin therapy” (priority 1975, dated 1977).
Where two headings read alike, the source gives them in different places.

Key:
[1] = test system: aspirin-induced gastric bleeding; experiment: Prevention of aspirin-induced gastric bleeding in pyloric-ligated rats, i.p. test compound (Examples 1-22); assay type: in vivo, Female Sprague-Dawley rats; details: for Gastric Bleeding Index: score 0 to 40
Experimental: The prevention of aspirin-induced bleeding in rats was determined by the following procedure. Female Sprague-Dawley rats weighing 150-180 g. were fasted for 24 hours on wire and divided into groups of six animals each. The rats were anesthetized and a ligature placed at the pyloric-duodenal junction. Groups serving as controls received normal saline (4.0 ml/kg, i.p.). […] Some of the compounds were tested at 50 mg/kg, i.p. The rats were sacrificed 60 min. after aspirin administration by cervical dislocation. The volume of the gastric contents was determined and compared against that produced with the same amount of aspirin for change in volume. […] (Gradation between 0 to 40 is on an even scale).

aspirin-induced bleeding = details: rat; for Gastric Bleeding Index / Percent Decrease In Mucosal Hemorrhage vs. Control / Total Hemoglobin Loss / Volume Gastric Secretion: aspirin 375 p.o.; for Total Hemoglobin Loss / Volume Gastric Secretion: ± S.E.
Experimental: The effect of glyceryl guaiacolate (Compound 8) on aspirin-induced bleeding in rats was studied using the following procedure. Female Sprague-Dawley rats, weighing 140-160 g. and fasted for 24 hrs. on wire were divided into groups of 10 animals each. All animals were anesthetized with Metofane® and a ligature placed at the pyloric-duodenal junction. Groups serving as controls received normal saline (4.0 ml/kg, i.p.). Some groups received normal saline and in addition were given aspirin (375 mg/kg, p.o.) in artificial gastric juice; the remaining groups received aspirin in the same amount and also glyceryl guaiacolate 30 min. prior to the aspirin. The aspirin was administered in artificial gastric juice (USP, […]) in a total volume of 2 ml. to each rat. Following a recovery period of 1 hr. the animals received saline, aspirin and glyceryl guaiacolate in the amounts and by the routes indicated. In most of the experiments, 90 min. following aspirin the rats were sacrificed by cervical dislocation. The stomachs were removed and gastric contents collected for further analysis. […] Hemoglobin loss produced by the aspirin was determined by the colorimetric method of Bing and Baker (J. Biol. Chem. 92: 589, 1931). The condition of the gastric mucosa was also assessed by determining the incidence and severity of damage using the scoring system described hereinabove to obtain the "Gastric Bleeding Index".
Following the procedure of Example 26, methocarbamol (Compound 3 ) was tested further in rats via intraperitoneal and intraduodenal administration.

[2] = test system: aspirin-induced gastric bleeding; experiment: Aspirin-induced gastric bleeding in Cr51 labeled Heidenhain pouch dogs, oral; assay type: in vivo; details: dog
Experimental: Methocarbamol (Compound 3) and Metaxalone (Compound 15) were evaluated for their effectiveness upon oral administration against aspirin-induced gastric bleeding in dogs. Three female chronic Heindehain pouch dogs were used. Red blood cells from each dog were labeled with Cr^51. The dogs were fasted 24 hours prior to any study and three days elapsed between studies. On experimental days each fundic pouch was rinsed with tepid tap water and then filled with 10 ml. of normal saline. After 30 minutes the saline was replaced with 10 ml. of artificial gastric juice (USP, pH 1.3). The dogs were given Compound 3 (200 mg/kg) or Compound 15 (50 and 100 mg/kg) or placebo (starch) orally in gelatin capsules. The 10 ml. of gastric juice was removed from the pouch after 60 minutes and replaced with another 10 ml. of juice containing 100 mg. of aspirin (80 mesh). This was likewise removed after 60 minutes. All samples collected from the pouches were counted for radio-activity using a deep-well counter. From the amount of radio-activity present in the gastric samples, the loss of blood into the pouch was determined. The results are shown in Table 3 and show the effectiveness of orally administering Compounds 3 and 15 in preventing aspirin-induced gastric bleeding.

[3] = rat, 100 mg/kg i.p. (column head states no dose), aspirin 375 mg/kg p.o.
[4] = ip, 1 h, rat, 100 mg/kg i.p., aspirin 375 mg/kg p.o., read-out: Percent Decrease in Mucosal Bleeding vs Control
[5] = 100 mg/kg intraduodenal, P <0.05
[6] = 200 mg/kg intraduodenal, P <0.05
[7] = 400 mg/kg intraduodenal, P <0.05
[8] = ip, rat, 100 mg/kg i.p. (column head states no dose), aspirin 375 mg/kg p.o., read-out: Vol. % Decrease in Gastric Secretion

## 1-(3,5-dimethyl)-2-hydroxypropyl-4-ethyl thiosemicarbazide [Compound 19]
[1]; [3]
  Vol. % Decrease in Gastric Secretion: -40.5%
  Gastric Bleeding Index: 0.0
[1]; rat, 100 mg/kg i.p., aspirin 375 mg/kg p.o.
  Percent Decrease in Mucosal Bleeding vs Control: 100%

## OCC(CO)Oc1ccccc1 [Compound 1, 2-phenoxy-1,3-propanediol]
[1]; [4]
  change in vivo at 100 mg/kg: -15%
[1]; [3]
  Gastric Bleeding Index: 31.7

## OCC(O)COc1ccccc1 (centres unmarked) [Compound 2, 3-phenoxy-1,2-propanediol]
[1]; Rattus norvegicus, ip, 1 h, read-out: Percent Decrease in Mucosal Bleeding vs Control
  change in vivo at 100 mg/kg: -14%
[1]; Rattus norvegicus, ip, read-out: Vol. % Decrease in Gastric Secretion
  change in vivo at 100 mg/kg: -14.1%
[1]; [3]
  Gastric Bleeding Index: 20.0

## COc1ccccc1OCC(O)COC(N)=O (centres unmarked) [Compound 3, 3-(o-methoxyphenoxy)-1,2-propanediol-1-carbamate]
aspirin-induced bleeding; 50 mg/kg i.p.
  Gastric Bleeding Index: 34 ± 2
  Percent Decrease In Mucosal Hemorrhage vs. Control: none
  Total Hemoglobin Loss: 22.4 ± 2.4 mg
  Volume Gastric Secretion: 6.2 ± 0.5 mL
aspirin-induced bleeding; 100 mg/kg i.p.
  Percent Decrease In Mucosal Hemorrhage vs. Control: 62%
  Volume Gastric Secretion: 5.5 ± 0.3 mL
aspirin-induced bleeding; 100 mg/kg i.p., P <0.05
  Total Hemoglobin Loss: 11.6 ± 3.6 mg
  Gastric Bleeding Index: 13 ± 6
aspirin-induced bleeding; 100 mg/kg intraduodenal
  Gastric Bleeding Index: 24 ± 3
  Percent Decrease In Mucosal Hemorrhage vs. Control: 27%
aspirin-induced bleeding; [5]
  Total Hemoglobin Loss: 27.8 ± 0.1 mg
  Volume Gastric Secretion: 5.0 ± 0.1 mL
aspirin-induced bleeding; 200 mg/kg i.p.
  Percent Decrease In Mucosal Hemorrhage vs. Control: 97%
aspirin-induced bleeding; 200 mg/kg i.p., P <0.05
  Total Hemoglobin Loss: 1.5 ± 0.5 mg
  Volume Gastric Secretion: 3.7 ± 0.4 mL
  Gastric Bleeding Index: 1 ± 1
aspirin-induced bleeding; 200 mg/kg intraduodenal
  Percent Decrease In Mucosal Hemorrhage vs. Control: 67%
aspirin-induced bleeding; [6]
  Total Hemoglobin Loss: 7.0 ± 2.8 mg
  Volume Gastric Secretion: 3.5 ± 0.6 mL
  Gastric Bleeding Index: 11 ± 6
aspirin-induced bleeding; 400 mg/kg intraduodenal
  Percent Decrease In Mucosal Hemorrhage vs. Control: 99%
aspirin-induced bleeding; [7]
  Total Hemoglobin Loss: 5.1 ± 3.6 mg
  Volume Gastric Secretion: 1.3 ± 0.1 mL
  Gastric Bleeding Index: 0.4 ± 1
aspirin-induced bleeding; one part by weight methocarbamol to 3.75 parts aspirin
  reducing bleeding (in words): significantly effective
[2]; 200 mg/kg p.o.
  % Protection: 79%
[2]; 200 mg/kg p.o., ± S.E.
  Mucosal Blood Loss, HCl + Aspirin: 6.6 ± 3.1 µL
[2]; 200 mg/kg p.o., ± S.E., without aspirin
  Mucosal Blood Loss, HCl: 3.5 ± 0.7 µL
[2]; 200 mg/kg p.o., P > .05
  % Change from Control (mucosal blood loss): +88%
[2]; oral
  preventing aspirin-induced gastric bleeding (in words): effectiveness
[1]; [4]
  change in vivo at 100 mg/kg: -43%
[1]; [8]
  change in vivo at 100 mg/kg: -18.3%
[1]; [3]
  Gastric Bleeding Index: 21.7

## COc1ccccc1OCC(O)COC(=O)N(C)C (centres unmarked) [Compound 4, N,N-dimethyl 3-(2-methoxyphenoxy)-1,2-propanediol-1-carbamate]
[1]; [4]
  change in vivo at 100 mg/kg: -70%
[1]; [8]
  change in vivo at 100 mg/kg: -35.2%
[1]; [3]
  Gastric Bleeding Index: 11.7

## COc1ccccc1OCC(C)O (centres unmarked) [Compound 5, 1-(2-methoxyphenoxy)-2-propanol]
[1]; [4]
  change in vivo at 100 mg/kg: -66%
[1]; [8]
  change in vivo at 100 mg/kg: -42%
[1]; [3]
  Gastric Bleeding Index: 12.5

## COc1ccc(Cl)cc1OCC(C)O (centres unmarked) [Compound 6, 1-(5-chloro-2-methoxyphenoxy)-2-propanol]
[1]; [4]
  change in vivo at 100 mg/kg: -93%
[1]; [8]
  change in vivo at 100 mg/kg: -42.2%
[1]; [3]
  Gastric Bleeding Index: 1.7

## COc1ccc(Cl)cc1OCC(O)CO (centres unmarked) [Compound 7, 3-(5-chloro-2-methoxyphenoxy)-1,2-propanediol]
[1]; [4]
  change in vivo at 100 mg/kg: -49%
[1]; [8]
  change in vivo at 100 mg/kg: -42%
[1]; [3]
  Gastric Bleeding Index: 19.2

## Cc1ccc(Cl)cc1OCC(O)COC(N)=O (centres unmarked) [Compound 9, 3-(5-chloro-2-methylphenoxy)-1,2-propanediol-1-carbamate]
[1]; [4]
  change in vivo at 100 mg/kg: -81%
[1]; [8]
  change in vivo at 100 mg/kg: -36.6%
[1]; [3]
  Gastric Bleeding Index: 7.2

## Cc1c(Cl)cccc1OCC(C)O (centres unmarked) [Compound 10, 1-(3-chloro-2-methylphenoxy)-2-propanol]
[1]; [4]
  change in vivo at 100 mg/kg: -40%
[1]; [8]
  change in vivo at 100 mg/kg: -18.8%
[1]; [3]
  Gastric Bleeding Index: 22.5

## Cc1ccc(Cl)cc1OCC(O)CO (centres unmarked) [Compound 11, 3-(5-chloro-2-methylphenoxy)-1,2-propanediol]
[1]; [4]
  change in vivo at 100 mg/kg: -10%
[1]; [8]
  change in vivo at 100 mg/kg: -29.7%
[1]; [3]
  Gastric Bleeding Index: 20.8

## Cc1ccc(Cl)cc1OCC(C)O (centres unmarked) [Compound 12, 3-(5-chloro-2-methylphenoxy)-2-propanol]
[1]; [4]
  change in vivo at 100 mg/kg: -75%
[1]; [8]
  change in vivo at 100 mg/kg: -35.9%
[1]; [3]
  Gastric Bleeding Index: 5.8

## COc1ccc(Cl)cc1OCC(O)COC(N)=O (centres unmarked) [Compound 13, 3-(5-chloro-2-methoxyphenoxy)-1,2-propanediol-1-carbamate]
[1]; [4]
  change in vivo at 100 mg/kg: -100%
[1]; [8]
  change in vivo at 100 mg/kg: -57.6%
[1]; [3]
  Gastric Bleeding Index: 0.0

## CCCCNCC(O)COc1ccccc1OC (centres unmarked) [Compound 14, 1-(n-butylamino)-3-(2-methoxyphenoxy)-2-propanol]
[1]; ip, 1 h, rat, 50 mg/kg i.p., aspirin 375 mg/kg p.o., read-out: Percent Decrease in Mucosal Bleeding vs Control
  change in vivo at 50 mg/kg: -78%
[1]; [4]
  change in vivo at 100 mg/kg: -70%
[1]; [8]
  change in vivo at 100 mg/kg: -35.6%
[1]; rat, 100 mg/kg i.p.
  Toxicity remark: Toxic
[1]; [3]
  Gastric Bleeding Index: 5.8

## O=C1NCC(COc2ccc(Cl)cc2Cl)O1 (centres unmarked) [Compound 16, 5-(2,4-dichlorophenoxymethyl)-2-oxazolidinone]
[1]; [4]
  change in vivo at 100 mg/kg: -100%
[1]; [8]
  change in vivo at 100 mg/kg: -44.6%
[1]; [3]
  Gastric Bleeding Index: 0.0

## Cc1cccc(Cl)c1OCC(C)OC(N)=O (centres unmarked) [Compound 17, 1-(6-chloro-2-methylphenoxy)-2-propylcarbamate]
[1]; [4]
  change in vivo at 100 mg/kg: -72%
[1]; [8]
  change in vivo at 100 mg/kg: -36.5%
[1]; [3]
  Gastric Bleeding Index: 7.5

## Cc1cc(Cl)ccc1OCC(C)OC(=O)NC(C)C (centres unmarked) [Compound 18, N-isopropyl 1-(4-chloro-2-methylphenoxy)-2-propylcarbamate]
[1]; [4]
  change in vivo at 100 mg/kg: -28%
[1]; [8]
  change in vivo at 100 mg/kg: -29.3%
[1]; [3]
  Gastric Bleeding Index: 19.2

## CNC(=O)N1CCC(Oc2cccc(Cl)c2)C1 (centres unmarked) [Compound 20, 3-(3-chlorophenoxy)-1-methylcarbamoyl-pyrrolidine]
[1]; [4]
  change in vivo at 100 mg/kg: -100%
[1]; [8]
  change in vivo at 100 mg/kg: -31%
[1]; [3]
  Gastric Bleeding Index: 0.0

## NC(=O)OCC(O)COc1ccc(Cl)cc1 (centres unmarked) [Compound 21, 3-(4-chlorophenoxy)-2-hydroxypropylcarbamate]
[1]; [4]
  change in vivo at 100 mg/kg: -78%
[1]; [8]
  change in vivo at 100 mg/kg: -30.5%
[1]; [3]
  Gastric Bleeding Index: 4.2

## CN(C)CCNC(=O)N1CCC(Oc2cccc(Cl)c2)C1 (centres unmarked) [Compound 30, 3-(3-chlorophenoxy)-N-[2-(dimethylaminoethyl)carboxamide]-1-pyrrolidine]
[1]; [4]
  change in vivo at 100 mg/kg: -100%
[1]; ip, 1 h, rat, at 30 mg/kg (footnote b), read-out: Percent Decrease in Mucosal Bleeding vs Control
  change in vivo at 30 mg/kg: -97%
[1]; ip, rat, at 30 mg/kg (footnote b), read-out: Vol. % Decrease in Gastric Secretion
  change in vivo at 30 mg/kg: -32.8%
[1]; rat, at 30 mg/kg (footnote b)
  Gastric Bleeding Index: 0.8
